The source of these data is PMC10444862, “Using macromolecular electron densities to improve the enrichment of active compounds in virtual screening” (Communications Chemistry, 2023).

Where only a bound is given, the exact number is not on record here.

The assay has as its target SARS-COV-2 3CLpro (having a P132H mutation, 3CLpro^P132H) (Severe acute respiratory syndrome coronavirus 2, UniProt P0DTD1, P3395H). It counts as biochemical.
On to `CC(=O)N1CCc2c(sc3c2c(=O)n(-c2ccccc2)c(=O)n3Cc2cc(C)ccc2C)C1` [E5, CC(=O)N1CCc2c(sc3c2c(=O)n(-c2ccccc2)c(=O)n3Cc2cc(C)ccc2C)C1], for which the “Inhibition Rate ([Cpd.]=40 uM)” value was 0.64.

On to `NC(=O)C[C@H]1CN(C(=O)COc2ncccn2)C[C@H]1OC(=O)c1ccccc1` [E17, NC(=O)C[C@H]1CN(C(=O)COc2ncccn2)C[C@H]1OC(=O)c1ccccc1], for which the “Inhibition Rate ([Cpd.]=40 uM)” value is less than 0.5.

Consider `CC(=O)N1CCc2c(sc3c2c(=O)n(-c2ccccc2)c(=O)n3CC(=O)c2ccc(F)cc2)C1` [D22, CC(=O)N1CCc2c(sc3c2c(=O)n(-c2ccccc2)c(=O)n3CC(=O)c2ccc(F)cc2)C1], for which the “Inhibition Rate ([Cpd.]=40 uM)” value is less than 0.5.

As for `CC(=O)N1CCc2c(sc3c2c(=O)n(-c2ccc(F)cc2)c(=O)n3Cc2cc(C)ccc2C)C1` [E3, CC(=O)N1CCc2c(sc3c2c(=O)n(-c2ccc(F)cc2)c(=O)n3Cc2cc(C)ccc2C)C1], the “Inhibition Rate ([Cpd.]=40 uM)” value came to 0.92.

`Cc1c(C(=O)NCCC2=CCCCC2)sc2ncnc(N(C)c3ccccc3)c12` [D3, Cc1c(C(=O)NCCC2=CCCCC2)sc2ncnc(N(C)c3ccccc3)c12]: the “Inhibition Rate ([Cpd.]=40 uM)” value was 0.63.

For `CCN(CC)C(=O)c1sc2c(c1C)c(=O)n(-c1ccccc1)c(=O)n2Cc1cccc(Cl)c1` [E15, CCN(CC)C(=O)c1sc2c(c1C)c(=O)n(-c1ccccc1)c(=O)n2Cc1cccc(Cl)c1], the “Inhibition Rate ([Cpd.]=40 uM)” value was less than 0.5.

On to `CN(CCCN(Cc1cccn1Cc1ccc(Cl)cc1)C(=O)Nc1ccccc1)c1ccccc1` [E11, CN(CCCN(Cc1cccn1Cc1ccc(Cl)cc1)C(=O)Nc1ccccc1)c1ccccc1], for which the “Inhibition Rate ([Cpd.]=40 uM)” value was less than 0.5.

Consider `CCn1c(=O)n(CCC(=O)NC(Cc2ccccc2)c2nc3ccccc3[nH]2)c2ccccc21` (stereo not shown) [E2, CCn1c(=O)n(CCC(=O)NC(Cc2ccccc2)c2nc3ccccc3[nH]2)c2ccccc21], for which the “Inhibition Rate ([Cpd.]=40 uM)” value worked out at 0.67.

As to `Cc1ccccc1N1C(=O)C(=Cc2ccc(N3CCOCC3)cc2)c2ccccc2C1=O` [D9, Cc1ccccc1N1C(=O)C(=Cc2ccc(N3CCOCC3)cc2)c2ccccc2C1=O], the “Inhibition Rate ([Cpd.]=40 uM)” value is reported as less than 0.5.

As to `O=C1/C(=C\NN(Cc2ccccc2)c2ccccc2)c2ccccc2C(=O)N1c1cccc(Cl)c1` [E4, O=C1C(=CNN(Cc2ccccc2)c2ccccc2)c2ccccc2C(=O)N1c1cccc(Cl)c1], the “Inhibition Rate ([Cpd.]=40 uM)” value was 0.65.

For `COc1ccccc1-n1c(=O)c2c3c(sc2n(Cc2cccc(F)c2)c1=O)CN(C(C)=O)CC3` [D5, COc1ccccc1-n1c(=O)c2c3c(sc2n(Cc2cccc(F)c2)c1=O)CN(C(C)=O)CC3], the “Inhibition Rate ([Cpd.]=40 uM)” value is recorded as less than 0.5.

For the compound `C[C@@]1(O)C[C@H](O)CN(C(=O)[C@@H](N)Cc2ccc(O)cc2)C[C@H]1n1cnc2c(N)nc(N)nc21` [D20, C[C@@]1(O)C[C@H](O)CN(C(=O)[C@@H](N)Cc2ccc(O)cc2)C[C@H]1n1cnc2c(N)nc(N)nc21], the “Inhibition Rate ([Cpd.]=40 uM)” value is reported as less than 0.5.

Consider `O=C(c1cc(=O)c2ccccc2o1)N1CCc2c([nH]c3ccccc23)C1c1ccccc1F` (stereo not shown) [E22, O=C(c1cc(=O)c2ccccc2o1)N1CCc2c([nH]c3ccccc23)C1c1ccccc1F], for which the “Inhibition Rate ([Cpd.]=40 uM)” value is less than 0.5.

Regarding `CC1CC(C)CN(C(=O)c2ccccc2NC(=O)N2CC(O)CC(F)(F)C2)C1` (stereo not shown) [D12, CC1CC(C)CN(C(=O)c2ccccc2NC(=O)N2CC(O)CC(F)(F)C2)C1], the “Inhibition Rate ([Cpd.]=40 uM)” value was less than 0.5.

Turning to `CC(C)[C@H](NS(=O)(=O)c1ccccc1F)C(=O)OCC(=O)Nc1cccc(S(N)(=O)=O)c1` [D13, CC(C)[C@H](NS(=O)(=O)c1ccccc1F)C(=O)OCC(=O)Nc1cccc(S(N)(=O)=O)c1], the “Inhibition Rate ([Cpd.]=40 uM)” value is reported as less than 0.5.

Regarding `COc1ccccc1-n1c(=O)c2c3c(sc2n(Cc2ccccc2)c1=O)CN(C(C)=O)CC3` [D17, COc1ccccc1-n1c(=O)c2c3c(sc2n(Cc2ccccc2)c1=O)CN(C(C)=O)CC3], the “Inhibition Rate ([Cpd.]=40 uM)” value is reported as less than 0.5.

Consider `CCc1ccccc1N(CC(=O)Nc1ccccc1C(=O)NC(C)CC)S(=O)(=O)c1ccccc1` (stereo not shown) [E9, CCc1ccccc1N(CC(=O)Nc1ccccc1C(=O)NC(C)CC)S(=O)(=O)c1ccccc1], for which the “Inhibition Rate ([Cpd.]=40 uM)” value was 0.54.

With `COCc1ccc(C(=O)N(Cc2ccccc2)Cc2nc3ccccc3c(=O)[nH]2)cc1` [E20, COCc1ccc(C(=O)N(Cc2ccccc2)Cc2nc3ccccc3c(=O)[nH]2)cc1], the “Inhibition Rate ([Cpd.]=40 uM)” value is reported as less than 0.5.

Turning to `O=C(NC(c1ccccc1)c1ccc2[nH]cnc2c1)C1=NN(C2CCS(=O)(=O)C2)C(=O)CC1` (stereo not shown) [D21, O=C(NC(c1ccccc1)c1ccc2[nH]cnc2c1)C1=NN(C2CCS(=O)(=O)C2)C(=O)CC1], the “Inhibition Rate ([Cpd.]=40 uM)” value is recorded as less than 0.5.

With `O=C1[C@@H]2Cc3c([nH]c4ccccc34)C(c3cccc([N+](=O)[O-])c3)N2C(=O)CN1CC(O)c1ccccc1` (stereo partly shown) [E21, O=C1[C@@H]2Cc3c([nH]c4ccccc34)C(c3cccc([N+](=O)[O-])c3)N2C(=O)CN1CC(O)c1ccccc1], the “Inhibition Rate ([Cpd.]=40 uM)” value is less than 0.5.

`COc1ccc(/N=C(/Nc2ccc(OC)cc2)c2cccc3ccccc23)cc1` [E10, COc1ccc(/N=C(/Nc2ccc(OC)cc2)c2cccc3ccccc23)cc1]: the “Inhibition Rate ([Cpd.]=40 uM)” value was less than 0.5.

For the compound `O=C(CSc1nc(-c2ccccc2F)nc2c1cnn2-c1ccccc1)NC1CC1` [E23, O=C(CSc1nc(-c2ccccc2F)nc2c1cnn2-c1ccccc1)NC1CC1], the “Inhibition Rate ([Cpd.]=40 uM)” value is reported as less than 0.5.

In the case of `CC(=O)c1ccc(C(=O)N2CCc3c([nH]c4ccccc34)C2c2ccccc2F)s1` (stereo not shown) [E18, CC(=O)c1ccc(C(=O)N2CCc3c([nH]c4ccccc34)C2c2ccccc2F)s1], the “Inhibition Rate ([Cpd.]=40 uM)” value was less than 0.5.

As to `COc1ccc(Cn2cc(C(CC(=O)N3CCCC3)c3ccccc3F)c3ccccc32)cc1` (stereo not shown) [D4, COc1ccc(Cn2cc(C(CC(=O)N3CCCC3)c3ccccc3F)c3ccccc32)cc1], the “Inhibition Rate ([Cpd.]=40 uM)” value was less than 0.5.

Consider `C/C(=N\Nc1nc2c(c(=O)[nH]c(=O)n2C)n1Cc1cccc2ccccc12)c1ccc(O)cc1` [D1, C/C(=N\Nc1nc2c(c(=O)[nH]c(=O)n2C)n1Cc1cccc2ccccc12)c1ccc(O)cc1], for which the “Inhibition Rate ([Cpd.]=40 uM)” value was found to be 1.49.

Turning to `Cn1c(NC(=O)c2cnn3c(C(F)(F)F)cc(-c4cccc5ccccc45)nc23)nc2ccccc21` [E1, Cn1c(NC(=O)c2cnn3c(C(F)(F)F)cc(-c4cccc5ccccc45)nc23)nc2ccccc21], the “Inhibition Rate ([Cpd.]=40 uM)” value turned out to be 0.82.

Take `Cc1c(C(=O)N(C)Cc2ccccc2)sc2ncnc(N(C)c3ccccc3)c12` [D14, Cc1c(C(=O)N(C)Cc2ccccc2)sc2ncnc(N(C)c3ccccc3)c12]: the “Inhibition Rate ([Cpd.]=40 uM)” value is reported as less than 0.5.

As for `COc1cccc(-n2c(=O)c3c(C)c(C(=O)N(C)C)sc3n(Cc3cccc(F)c3)c2=O)c1` [E14, COc1cccc(-n2c(=O)c3c(C)c(C(=O)N(C)C)sc3n(Cc3cccc(F)c3)c2=O)c1], the “Inhibition Rate ([Cpd.]=40 uM)” value is recorded as less than 0.5.

For `COCCn1/c(=N/C(=O)c2c(F)cccc2F)sc2cc(S(N)(=O)=O)ccc21` [D23, COCCn1/c(=N/C(=O)c2c(F)cccc2F)sc2cc(S(N)(=O)=O)ccc21], the “Inhibition Rate ([Cpd.]=40 uM)” value was less than 0.5.

With `COc1ccccc1-n1c(=O)c2c3c(sc2n(Cc2cccc(Cl)c2)c1=O)CN(C(C)=O)CC3` [D7, COc1ccccc1-n1c(=O)c2c3c(sc2n(Cc2cccc(Cl)c2)c1=O)CN(C(C)=O)CC3], the “Inhibition Rate ([Cpd.]=40 uM)” value is less than 0.5.

For the compound `O=C(c1cccc(O)c1)N1C[C@@H](c2cc(F)cc(F)c2)[C@@H]2[C@H]1C1CCN2CC1` [D24, O=C(c1cccc(O)c1)N1C[C@@H](c2cc(F)cc(F)c2)[C@@H]2[C@H]1C1CCN2CC1], the “Inhibition Rate ([Cpd.]=40 uM)” value is less than 0.5.

For the compound `O=CN1CCCN(C(=O)CC2C(=O)NCCN2Cc2cccc(Oc3ccccc3)c2)CC1` (stereo not shown) [D16, O=CN1CCCN(C(=O)CC2C(=O)NCCN2Cc2cccc(Oc3ccccc3)c2)CC1], the “Inhibition Rate ([Cpd.]=40 uM)” value was less than 0.5.

`COc1cccc(CN(CCc2c[nH]c3ccccc23)C(=O)c2ccnn2C)c1` [E19, COc1cccc(CN(CCc2c[nH]c3ccccc23)C(=O)c2ccnn2C)c1]: the “Inhibition Rate ([Cpd.]=40 uM)” value was less than 0.5.

Regarding `CCOc1ccc(N(Cc2nnc3n2CCCCC3)C(=O)Nc2ccc(C)cc2)cc1` [E12, CCOc1ccc(N(Cc2nnc3n2CCCCC3)C(=O)Nc2ccc(C)cc2)cc1], the “Inhibition Rate ([Cpd.]=40 uM)” value is reported as less than 0.5.

In the case of `COc1ccc(N2C(=O)C3C(Cc4c[nH]c5ccccc45)NC4(C(=O)Nc5ccccc54)C3C2=O)cc1` (stereo not shown) [E24, COc1ccc(N2C(=O)C3C(Cc4c[nH]c5ccccc45)NC4(C(=O)Nc5ccccc54)C3C2=O)cc1], the “Inhibition Rate ([Cpd.]=40 uM)” value is reported as less than 0.5.

Take `CC(=O)N1C(C(=O)N(CCc2ccccc2)Cc2ccccc2)CSC1c1ccccc1O` (stereo not shown) [E7, CC(=O)N1C(C(=O)N(CCc2ccccc2)Cc2ccccc2)CSC1c1ccccc1O]: the “Inhibition Rate ([Cpd.]=40 uM)” value was 0.63.

`Cc1ccc(N2C(=O)N(CC(=O)Nc3cccc(S(N)(=O)=O)c3)C(=O)C2C)cc1` (stereo not shown) [D11, Cc1ccc(N2C(=O)N(CC(=O)Nc3cccc(S(N)(=O)=O)c3)C(=O)C2C)cc1]: the “Inhibition Rate ([Cpd.]=40 uM)” value is less than 0.5.

Consider `O=C(c1cccnc1)N1CCc2c([nH]c3ccccc23)C1c1cccc(C(F)(F)F)c1` (stereo not shown) [E6, O=C(c1cccnc1)N1CCc2c([nH]c3ccccc23)C1c1cccc(C(F)(F)F)c1], for which the “Inhibition Rate ([Cpd.]=40 uM)” value worked out at 0.55.

For `O=C(c1ccsc1)N1CCC[C@H](n2c(=O)n(Cc3cccc(F)c3)c3cccnc32)C1` [D8, O=C(c1ccsc1)N1CCC[C@H](n2c(=O)n(Cc3cccc(F)c3)c3cccnc32)C1], the “Inhibition Rate ([Cpd.]=40 uM)” value is less than 0.5.

Take `C/C(=N\Nc1nc2c(c(O)nc(=O)n2C)n1Cc1cccc2ccccc12)c1ccc(O)cc1` [D10, C/C(=N\Nc1nc2c(c(O)nc(=O)n2C)n1Cc1cccc2ccccc12)c1ccc(O)cc1]: the “Inhibition Rate ([Cpd.]=40 uM)” value was less than 0.5.

Regarding `CC(=O)N1CCc2c(sc3c2c(=O)n(-c2ccccc2C)c(=O)n3Cc2cc(C)ccc2C)C1` [E16, CC(=O)N1CCc2c(sc3c2c(=O)n(-c2ccccc2C)c(=O)n3Cc2cc(C)ccc2C)C1], the “Inhibition Rate ([Cpd.]=40 uM)” value is reported as less than 0.5.

For the compound `O=C(Nc1ccccc1)N1CCCC(C(=O)N2CC(C(=O)N3CCCCC3)Oc3ccccc32)C1` (stereo not shown) [D19, O=C(Nc1ccccc1)N1CCCC(C(=O)N2CC(C(=O)N3CCCCC3)Oc3ccccc32)C1], the “Inhibition Rate ([Cpd.]=40 uM)” value was less than 0.5.

Turning to `O=C(CN1C(=O)NC2(CCCC2)C1=O)Nc1ccccc1C(=O)Nc1ccc2c(c1)OCO2` [D2, O=C(CN1C(=O)NC2(CCCC2)C1=O)Nc1ccccc1C(=O)Nc1ccc2c(c1)OCO2], the “Inhibition Rate ([Cpd.]=40 uM)” value is 0.56.
